# Tested on: HEK293 cells
# Test: HEK293 VLCFA-LPC IC50 determination (13C-labeled C26:0 LPC by UHPLC/MS)
# Assay type: cell-based, human
# Conditions: Homo sapiens, HEK293, 48 h, average of one or more replicates; 13C-labeled C26:0 LPC, 48 hours; read-out: Average HEK293 IC50
# Procedure: HEK293 cells were treated with compounds, such as those listed in Tables A-E of Example 1, using the representative manual protocols described below. The protocols below were also adapted to a semi-automated protocol using standard methods in the art.
# Cell Culture Growth Conditions:
# HEK293 cells were maintained in FreeStyle F17 media (Gibco # A13835) supplemented with PenStrep (1%, Gibco #15070-063), Glutamax (2%, Gibco #35050-061), and Pluronic (0.1%, Gibco #24040-032) (“supplemented media”). Suspension cultures were grown in disposable Erlenmeyer flasks at about 120 rpm, 37° C., 5% CO2, and 80% humidity. Cell densities were kept between about 0.5 and 3 million cells per mL, in about 50-200 mL per flask.
# Treatment of Cells with Compounds Provided Herein:
# The cells were treated with compounds using either a total of 900 uL cell media volume (high-volume assay) or a total of 200 uL cell media volume (low-volume assay). In the high volume assay, 450 μL of supplemented media plus 13C-acetate (1.0 mg/mL, Sigma Aldrich #282014) were added to 0.5 μL of a compound (such as those in Tables A-E) in DMSO in a polypropylene v-bottom plate (Costar #3363) in 1 of 3 dilution schemes. The contents of each well were mixed and transferred to a sterile polypropylene deep-well v-bottom plate (Costar #3960). 450 μL of cultured HEK293 cells in supplemented media at a density of 1.0 million cells/mL was added to each well. In the low volume assay, 100 μL of supplemented media plus 13C-acetate (1.0 mg/mL, Sigma Aldrich #282014) were added to either 0.1 μL or 1.0 uL of a compound (such as those in Tables A-E) in DMSO in a polypropylene v-bottom plate (Costar #3363) in 1 of 3 dilution schemes. 100 μL of cultured HEK293 cells in supplemented media at a density of 1.0 million cells/mL was added to each well. The high volume and low volume plates were sealed with either AirPore Tape Sheets (Qiagen #19571) or Duetz plate covers to control evaporation and placed into a shaking incubator at 225 rpm, 37° C., 5% CO2, and 80% humidity for 48 hours. For both the high and low volume assays the 3 dilution schemes used were as follows:
# Following incubation, treated cells were harvested by centrifugation at 1690×g for 10 minutes. In the high volume assay 200 uL treated cells were transferred to a polypropylene v-bottom plate (Costar #3363) prior to centrifugation. In the low volume assay the incubation plate was centrifuged directly, without a transfer step. The supernatant was then discarded and the analytes were extracted using 1 of 2 different extraction schemes. In the first scheme, the cell pellet was visibly broken up by mixing the cell pellet up and down in 100 μL of hexane/isopropanol (60:40) 20 times. The resulting mixture was transferred to a 0.45 μm Durapore membrane (Millipore #MSH VN4510) atop a polypropylene v-bottom plate (Costar #3363) and filtered by centrifugation at 1690×g for 5 minutes. 120 μL of n-butanol containing 10 nM C13:0 lysophosphatidylcholine was added to the filtrate as an injection control standard, then the entire volume was transferred to a new Durapore membrane/v-bottom plate. In the second scheme, the cell pellet was visibly broken up by mixing the cell pellet up and down in 180 μL of methanol containing 10 nM C13:0 lysophosphatidylcholine 20 times. The resulting mixture was transferred to a 0.45 μm Durapore membrane (Millipore #MSH VN4510) atop a polypropylene v-bottom plate and filtered by centrifugation at 1690×g for 5 minutes. In both schemes, the plates were then sealed with pierceable capmats (Micronic MP53017) and stored at −20 OC until analyzed.
# UHPLC/Mass Spectrometry Readout:
# The filtered organic extraction was analyzed with a 1290 Agilent Infinity Series UHPLC coupled to an ABI Sciex QTrap 6500 mass spectrometer. […]
row,SMILES,IC50
1,"O=C(Nc1nn(-c2cncc(F)c2)cc1F)C1(c2ccccc2)CC1 [Compound 445, N-[4-fluoro-1-(5-fluoro-3-pyridyl)pyrazol-3-yl]-1-phenyl-cyclopropanecarboxamide]",1400 nM
2,"Cc1nn(C)cc1-n1ccc(NC(=O)C2(c3ccccc3F)CC2)n1 [Compound 403, N-[1-(1,3-dimethylpyrazol-4-yl)pyrazol-3-yl]-1-(2-fluorophenyl)cyclopropanecarboxamide]",> 5000 nM
3,"COc1cncc(C#N)c1-n1ccc(NC(=O)C2(c3ccccc3F)CC2)n1 [Compound 327, N-[1-(3-cyano-5-methoxy-4-pyridyl)pyrazol-3-yl]-1-(2-fluorophenyl)cyclopropanecarboxamide]",> 5000 nM
4,"Cc1cc(-n2ccc(NC(=O)C3(c4ccccc4F)CC3)n2)cc(C#N)n1 [Compound 346, N-[1-(2-cyano-6-methyl-4-pyridyl)pyrazol-3-yl]-1-(2-fluorophenyl)cyclopropanecarboxamide]",> 5000 nM
5,"O=C(Nc1ccn(-c2ncns2)n1)C1(c2ccccc2F)CC1 [Compound 406, 1-(2-fluorophenyl)-N-[1-(1,2,4-thiadiazol-5-yl)pyrazol-3-yl]cyclopropanecarboxamide]",18 nM
6,"Cc1ncc(-n2ccc(NC(=O)C3(c4ccccc4F)CC3)n2)cc1F [Compound 349, N-[1-(5-fluoro-6-methyl-3-pyridyl)pyrazol-3-yl]-1-(2-fluorophenyl)cyclopropanecarboxamide]",440 nM

# Same assay, conditions: Homo sapiens, HEK293, HEK293 cells; average of one or more replicates; read-out: Average HEK293 IC50
row,SMILES,IC50
1,"O=C(Cc1ccc(F)cc1)Nc1ccn(-c2ccc(Cl)nc2)n1 [Compound 105, N-[1-(6-chloro-3-pyridyl)pyrazol-3-yl]-2-(4-fluorophenyl)acetamide]",> 5000 nM
2,"O=C(Cc1ccccc1F)Nc1ccn(-c2ccc(F)c(Cl)c2)n1 [Compound 199, N-[1-(3-chloro-4-fluoro-phenyl)pyrazol-3-yl]-2-(2-fluorophenyl)acetamide]",> 5000 nM
3,"O=C(Nc1cc(F)n(-c2cncc(F)c2)n1)C1(c2ccccc2F)CC1 [Compound 463, N-[5-fluoro-1-(5-fluoro-3-pyridyl)pyrazol-3-yl]-1-(2-fluorophenyl)cyclopropanecarboxamide]",> 5000 nM
4,"O=C(Nc1ccn(-c2ccc(F)c(F)c2)n1)C1(c2ncccn2)CC1 [Compound 532, N-[1-(3,4-difluorophenyl)pyrazol-3-yl]-1-pyrimidin-2-yl-cyclopropanecarboxamide]",> 5000 nM
5,"O=C(Nc1ccn(-c2cncc(F)c2)n1)C1(c2ncccc2F)CC1 [Compound 423, 1-(3-fluoropyridin-2-yl)-N-(1-(5-fluoropyridin-3-yl)-1H-pyrazol-3-yl)cyclopropane-1-carboxamide]",46 nM
6,"O=C(Cc1ccccc1)Nc1ccn(-c2ccncn2)n1 [Compound 209, 2-phenyl-N-(1-pyrimidin-4-ylpyrazol-3-yl)acetamide]",2300 nM
7,"O=C(Cn1cccn1)Nc1ccn(-c2ccnc(F)c2)n1 [Compound 283, N-[1-(2-fluoro-4-pyridyl)pyrazol-3-yl]-2-pyrazol-1-yl-acetamide]",> 5000 nM
8,"Cc1ccc(F)c(C2(C(=O)Nc3ccn(-c4ccnc(F)c4)n3)CC2)c1Cl [Compound 272, 1-(2-chloro-6-fluoro-3-methyl-phenyl)-N-[1-(2-fluoro-4-pyridyl)pyrazol-3-yl]cyclopropanecarboxamide]",460 nM
9,"COc1ccc(CC(=O)Nc2ccn(-c3ccccc3)n2)cc1F [Compound 63, 2-(3-fluoro-4-methoxy-phenyl)-N-(1-phenylpyrazol-3-yl)acetamide]",> 5000 nM
10,"COc1cccc(C2(C(=O)Nc3ccn(-c4ccccc4)n3)CC2)c1 [Compound 26, 1-(3-methoxyphenyl)-N-(1-phenylpyrazol-3-yl)cyclopropanecarboxamide]",270 nM
11,"O=C(Cc1cccc(F)c1F)Nc1ccn(-c2ccccc2)n1 [Compound 60, 2-(2,3-difluorophenyl)-N-(1-phenylpyrazol-3-yl)acetamide]",> 2000 nM
12,"O=C(Nc1ccn(-c2ccc(Cl)cc2)n1)C1(c2ccccc2F)CC1 [Compound 131, N-[1-(4-chlorophenyl)pyrazol-3-yl]-1-(2-fluorophenyl)cyclopropanecarboxamide]",480 nM
13,"O=C(Nc1ccn(-c2cncc(Cl)c2)n1)C1(c2ncccc2F)CC12CC2 (stereo not drawn) [Compound 520, N-[1-(5-chloro-3-pyridyl)pyrazol-3-yl]-2-(3-fluoro-2-pyridyl)spiro[2.2]pentane-2-carboxamide]",1600 nM
14,"Cc1ccc(-n2ccc(NC(=O)Cc3ccccc3)n2)cn1 [Compound 117, N-[1-(6-methyl-3-pyridyl)pyrazol-3-yl]-2-phenyl-acetamide]",> 5000 nM
15,"CC1CC1(C(=O)Nc1ccn(-c2cncc(F)c2)n1)c1ncccc1F (stereo not drawn) [Compound 503, 1-(3-fluoro-2-pyridyI)-N-[1-(5-fluoro-3-pyridyl)pyrazol-3-yl]-2-methyl-cyclopropanecarboxamide]",110 nM
16,"CC1(C)CC1(C(=O)Nc1ccn(-c2ccncc2)n1)c1ncccc1F (stereo not drawn) [Compound 518, 1-(3-fluoro-2-pyridyl)-2,2-dimethyl-N-[1-(4-pyridyl)pyrazol-3-yl]cyclopropanecarboxamide]",1200 nM
17,"CCC1(C)CC1(C(=O)Nc1ccn(-c2ccccc2)n1)c1ccccc1 (stereo not drawn) [Compound 166, 2-ethyl-2-methyl-1-phenyl-N-(1-phenylpyrazol-3-yl)cyclopropanecarboxamide]",630 nM
18,"O=C(Cc1ccc(O)c(F)c1)Nc1ccn(-c2ccccc2)n1 [Compound 56, 2-(3-fluoro-4-hydroxy-phenyl)-N-(1-phenylpyrazol-3-yl)acetamide]",> 5000 nM
19,"CCOc1ccc(CC(=O)Nc2ccn(-c3ccccc3)n2)cc1 [Compound 47, 2-(4-ethoxyphenyl)-N-(1-phenylpyrazol-3-yl)acetamide]",> 5000 nM
20,"O=C(Nc1ccn(-c2ccccc2)n1)C1(c2ccncc2F)CC1 [Compound 280, 1-(3-fluoro-4-pyridyl)-N-(1-phenylpyrazol-3-yl)cyclopropanecarboxamide]",770 nM
21,"CN(C)c1ccc(-n2ccc(NC(=O)C3(c4ccccc4F)CC3)n2)cn1 [Compound 394, N-[1-[6-(dimethylamino)-3-pyridyl]pyrazol-3-yl]-1-(2-fluorophenyl)cyclopropanecarboxamide]",> 5000 nM
22,"CC1(C)CC1(C(=O)Nc1ccn(-c2ccccc2)n1)c1ccccc1 (stereo not drawn) [Compound 136, 2,2-dimethyl-1-phenyl-N-(1-phenylpyrazol-3-yl)cyclopropanecarboxamide]",940 nM
23,"O=C(Nc1ccn(-c2ccnc(F)c2)n1)C1(c2ccccc2)CC1 [Compound 237, N-[1-(2-fluoro-4-pyridyl)pyrazol-3-yl]-1-phenyl-cyclopropanecarboxamide]",22 nM
24,"O=C(Cc1ccccc1)Nc1ccn(-c2cccc(Cl)c2)n1 [Compound 121, N-[1-(3-chlorophenyl)pyrazol-3-yl]-2-phenyl-acetamide]",650 nM
25,"O=C(Nc1ccn(-c2ccccc2)n1)C1(c2ccccc2)CCC1 [Compound 35, 1-phenyl-N-(1-phenylpyrazol-3-yl)cyclobutanecarboxamide]",330 nM
26,"O=C(Nc1ccn(-c2ccccc2)n1)C1(c2ccccc2F)CC1 [Compound 22, 1-(2-fluorophenyl)-N-(1-phenylpyrazol-3-yl)cyclopropanecarboxamide]",12 nM
27,"O=C(Nc1ccn(-c2ccccc2)n1)C1(c2cc(F)ccc2F)CC1 [Compound 261, 1-(2,5-difluorophenyl)-N-(1-phenylpyrazol-3-yl)cyclopropanecarboxamide]",160 nM
